This test has as its system cocktail of MDR E. coli strains (521ZQE, AZ1, WWE921A-2) in C57BL/6 J mice. As to the kind of experiment: Cocktail of MDR E. coli strains challenge in mice, MccJ25 pretreatment. It is filed as in vivo. An excerpt: 4-week-old C57BL/6 J female mice [initial body weight (BW) 15.23 ± 0.09] were purchased from Charles River Laboratories (Beijing, China) and raised under standard conditions. The producer was described in “Mice Model” section. […] Mice were maintained in a 3-d acclimatization period of time. Afterwards, 36 mice were randomly separated into three experimental groups based on BW: Uninfected group, control; Infected group; MccJ25+infected group, 12 mice per group in four cages, three mice/cage, total of 12 cages. Cocktail of MDR E. coli strains infection producers were performed as our previous described previously ([30]), experimental roadmap was shown in Figure 10A . A single of colony of MDR E. coli strains 521ZQE, AZ1, and WWE921A-2 were incubated in LB medium and grew to stationary stage (OD600 > 3), respectively. All mice were pretreated 0.2 ml PBS (control and infected group) or 0.2 ml PBS containing with 9.1 mg/kg/BW MccJ25 (MccJ25+infected group) for 3 d (once/day) prior to infection. Infected mice and MccJ25+infected mice received 0.2 ml sterile PBS containing 5 × 10^8 cocktail of MDR E. coli strains by oral gavage. The control group still received 0.2 ml of sterile PBS by gavage for 2 d. The concentration of biosynthetic MccJ25 was selected based on our previous study ([24]). After 3 d, mice were euthanized friendly, intestinal tissues, organs and serum were obtained. Fresh fecal, tissues, liver, and spleen were immediately placed on ice (1-2 h) and transported to the laboratory to count the specific bacteria in the laboratory. Serum was kept in -20°C and part of jejunum, colon, and spleen were stored in the -80°C for cytokines analysis.
In the LPS-challenged mice experiment, lifespan of mice was monitored for 72 h. In the cocktail of MDR E. coli strains infection experiment, BW change, rectal temperature, diarrhea scores and fecal image, or survival rate were measured. For the diarrhea score evaluation producer was referred to previous study ([24]).
The 0.1 g fresh jejunum, ileum, proximal colon, feces, liver, and spleen were collected and kept in sterile tubes containing 0.9 ml sterile physiological saline solution. Then, cryogenic lapping instrument (Shanghai Jingxin Industrial Development Co., Ltd., China) was applied to prepare the homogenate. 0.1 mL indicated samples prepared by ten-fold serial dilutions method were plated on indicated antibiotics MacConkey (OXOID, Hampshire, UK) and ChromAgar™ (OXOID, Hampshire, UK) plates. These plates were cultured overnight at 37°C to count colonies. Colony numbers were expressed as log 10 CFU/g of samples. All counts were performed in triplicate. Colonies were observed on the MacConkey agar and ChromAgar plates in the absence of indicated antibiotics, we considered that they were enterobacteria-like bacterium belonging to the class of family Enterobacteriaceae.
Quantification of total bacteria, E. coli, Lactobacillus, and Bifidobacterium was done using PCR. In brief, total microbial DNA from cecal digesta was obtained. The total bacteria, Lactobacillus, Bifidobacterium, E. coli primers were synthesized in Invitrogen (Shanghai, China), which are listed in Table S1 . Standard curves of indicated bacteria were generated based on the construction of standard plasmids containing the 16S rRNA genes. The copy numbers of total bacteria, Lactobacillus, Bifidobacterium, and E. coli were calculated referring to standard curves as described previously ([30]).
The concentrations of tumor necrosis factor-α (TNF-α), interleukin-6 (IL-6), IL-4, interferon (IFN)-γ, and nitric oxide (NO) in serum were measured. In addition, TNF-α and NO levels were also measured in the supernatant of RAW264.7 cells. ELISA was performed using a commercial ELISA kit (eBioscience, San Diego, USA). LPS levels in plasma were analyzed using the QCL-1000 kit (Xiamen, China) based on the manufacturer’s standards. […]

Setting [1] is: 9.1 mg/kg/BW oral gavage for 3 d before infection.
The mark [2] stands for this setting: ELISA, vs infected group, n = 6.
Setting [3] is: jejunum, colon and spleen, qPCR, vs infected mice.

Where a SMILES comes first, the peptide text is derived from it. Bridges are numbered along the chain shown (N, C = ends).

For the molecule `CC[C@H](C)[C@H](NC(=O)CNC(=O)[C@@H](NC(=O)[C@H](Cc1ccccc1)NC(=O)[C@H](Cc1ccc(O)cc1)NC(=O)[C@@H]1CCC(=O)NCC(=O)NCC(=O)N[C@@H](C)C(=O)NCC(=O)N[C@@H](Cc2c[nH]cn2)C(=O)N[C@@H](C(C)C)C(=O)N2CCC[C@H]2C(=O)N1)C(C)C)C(=O)NCC(=O)N[C@H](C(=O)N1CCC[C@H]1C(=O)N[C@H](C(=O)N[C@@H](CO)C(=O)N[C@@H](Cc1ccccc1)C(=O)N[C@@H](Cc1ccc(O)cc1)C(=O)NCC(=O)O)[C@@H](C)CC)[C@@H](C)O` [MccJ25, microcin J25] (GGAGHVPEYFVGIGTPISFYG-OH; lactam N-8 (inferred); C-terminus assumed), under setting [1], the body weight entry is “increasing BW”, the diarrhea incidence entry was “decreasing diarrhea incidence” and the rectal temperature result is reported as “increasing”. Further, where the note is “9.1 mg/kg/BW oral gavage once/day for 3 d before infection, n = 12”, the lifespan / survival entry is “prolonging the lifespan”. Moreover, under setting [2], the “serum IL-4” value is “higher IL-4” and the “serum proinflammatory cytokines (TNF-α, IFN-γ, IL-6)” value is listed as “lower proinflammatory cytokines”. In addition, the “MDR E. coli colonization in liver and spleen” value (d 3 after infection, n = 6) was “effectively reduced the degree of clinically source MDR E. coli colonization and expansion”. Under setting [3], the “IL-10 mRNA” value is recorded as “high anti-inflammatory cytokine IL-10” and the “mRNA of proinflammatory indicators (TNF-α, IL-6, IFN-γ, IL-1β, TLR4, NF-κB)” value is “lower proinflammatory indicators”. Besides, the “MDR E. coli in the intestines (jejunum, ileum, colon)” value (plate counts, d 3 after infection) was “significantly reduced the number and colonization”. Also, where the note is “real-time qPCR”, the “copy number of E. coli in cecal contents” value is “sharply decreased the copy number”; the “copy numbers of Lactobacillus, Bifidobacterium in cecal contents” value is on record as “significantly increased the copy numbers”; the “total bacteria copy numbers in cecal contents” value is on record as “no significant difference”. Further, the “bacterial load in the feces” value (vs infected group, n = 6) is reported as “markedly decreased the bacterial load”.

(Values after publication PMC8894198, “Biosynthetic Microcin J25 Exerts Strong Antibacterial, Anti-Inflammatory Activities, Low Cytotoxicity Without Increasing Drug-Resistance to Bacteria Target” (Frontiers in Immunology, 2022).)
